# Reference: patent US20200085776A1, “Methods of Reducing C-Reactive Protein and/or Treating Cardiovascular Disease” (CARDAX, INC., priority 2018, published 2020)
# Tested on: C-reactive protein (CRP)
# Assay: CRP (hs-CRP) in blood, CHASE clinical study
# Assay type: in vivo, human
# Conditions: Group Z 48 mg BID
# Text: This is a two-part study comprising Part I and Part II. Following screening, Part I consists of a randomized, double-blind, placebo controlled dosing period of up to 12 weeks. The study shall be conducted at one or more study sites in Hawaii. Approximately 360 subjects qualified after completion of screening procedures shall be randomized in a 1:1:1 ratio to one of three treatment groups, per Table 1.
# The Part I 12-week double-blind dosing period commences with V2, including randomization and first dose of study product, and continues with study visits at Week 1-2 (V3), Week 4 (V4), Week 8 (V5), and Week 12 (V6). V6 procedures will conclude Part I.
# Blood shall be obtained at each visit for CRP. The screening specimen shall be processed at the local lab and reported to the study staff for eligibility determination; CRP samples at V7 and V8 may also be processed locally and reported directly to study staff. Samples for CRP from V2 through V6 may be batched, processed, and reported as specified in the Laboratory Manual.
# At each these visits, blood was obtained for measurement of CRP, among other parameters. Table 7A provides a summary of the CRP measurements (mg/L) at each visit and Table 7B provides a summary of the differences of CRP levels between V2 and V6.
# [1] = V1 screening, subjects with baseline level greater than 2.0
# [2] = V2 baseline pre-dose, all subjects
# [3] = V2 baseline pre-dose, subjects not taking a hypertension agent
# [4] = V2 baseline pre-dose, subjects not taking any cardiac therapeutic agent
# [5] = V2 baseline pre-dose, subjects not taking statins
# [6] = V2 baseline pre-dose, subjects taking an anti-diabetic agent
# [7] = V2 baseline pre-dose, subjects with CAD
# [8] = V2 baseline pre-dose, subjects with DM2, hypertension and hyperlipidemia but not CAD
# [9] = V2 baseline pre-dose, subjects with Diabetes Mellitus Type II
# [10] = V2 baseline pre-dose, subjects with baseline level greater than 2.0
# [11] = V2 baseline pre-dose, subjects with hyperlipidemia
# [12] = V3 Week 1-2, subjects with baseline level greater than 2.0
# [13] = V4 Week 4, subjects with baseline level greater than 2.0
# [14] = V5 Week 8, subjects with baseline level greater than 2.0
# [15] = V6 Week 12, subjects not taking a hypertension agent
# [16] = V6 Week 12, subjects not taking any cardiac therapeutic agent
# [17] = V6 Week 12, subjects not taking statins
# [18] = V6 Week 12, subjects taking an anti-diabetic agent
structure (smiles),measurement,setting,value
"CC1=C(/C=C/C(C)=C/C=C/C(C)=C/C=C/C=C(C)/C=C/C=C(C)/C=C/C2=C(C)C(=O)C(O)CC2(C)C)C(C)(C)CC(O)C1=O (stereo not drawn) [Astaxanthin, astaxanthin]",CRP Max,"V1 screening, all subjects",14.17 mg/L
same,CRP Mean (SD),"V1 screening, all subjects",5.12 (3.39) mg/L
same,CRP Median,"V1 screening, all subjects",4.20 mg/L
same,CRP Min,"V1 screening, all subjects",2.03 mg/L
same,CRP Max,[1],14.17 mg/L
same,CRP Mean (SD),[1],5.65 (3.56) mg/L
same,CRP Median,[1],4.94 mg/L
same,CRP Min,[1],2.03 mg/L
same,CRP Max,[2],8.51 mg/L
same,CRP Mean (SD),[2],4.28 (2.32) mg/L
same,CRP Median,[2],4.68 mg/L
same,CRP Min,[2],1.27 mg/L
same,CRP Max,[3],6.30 mg/L
same,CRP Mean (SD),[3],4.52 (1.86) mg/L
same,CRP Median,[3],4.68 mg/L
same,CRP Min,[3],2.59 mg/L
same,CRP Max,[4],8.04 mg/L
same,CRP Mean (SD),[4],4.55 (2.02) mg/L
same,CRP Median,[4],4.68 mg/L
same,CRP Min,[4],1.81 mg/L
same,CRP Max,[5],8.51 mg/L
same,CRP Mean (SD),[5],4.97 (2.51) mg/L
same,CRP Median,[5],4.83 mg/L
same,CRP Min,[5],1.83 mg/L
same,CRP Max,[6],8.51 mg/L
same,CRP Mean (SD),[6],4.48 (2.24) mg/L
same,CRP Median,[6],4.98 mg/L
same,CRP Min,[6],1.27 mg/L
same,CRP Max,[7],6.68 mg/L
same,CRP Mean (SD),[7],3.49 (2.23) mg/L
same,CRP Median,[7],3.12 mg/L
same,CRP Min,[7],1.27 mg/L
same,CRP Max,[8],8.51 mg/L
same,CRP Mean (SD),[8],5.26 (2.32) mg/L
same,CRP Median,[8],5.04 mg/L
same,CRP Min,[8],2.59 mg/L
same,CRP Max,[9],8.51 mg/L
same,CRP Mean (SD),[9],4.78 (2.37) mg/L
same,CRP Median,[9],5.01 mg/L
same,CRP Min,[9],1.27 mg/L
same,CRP Max,[10],8.51 mg/L
same,CRP Mean (SD),[10],5.25 (1.89) mg/L
same,CRP Median,[10],5.17 mg/L
same,CRP Min,[10],2.29 mg/L
same,CRP Max,[11],8.51 mg/L
same,CRP Mean (SD),[11],3.78 (2.28) mg/L
same,CRP Median,[11],3.12 mg/L
same,CRP Min,[11],1.27 mg/L
same,CRP Max,"V3 Week 1-2, all subjects",13.08 mg/L
same,CRP Mean (SD),"V3 Week 1-2, all subjects",4.86 (3.09) mg/L
same,CRP Median,"V3 Week 1-2, all subjects",4.52 mg/L
same,CRP Min,"V3 Week 1-2, all subjects",1.77 mg/L
same,CRP Max,[12],13.08 mg/L
same,CRP Mean (SD),[12],5.62 (3.21) mg/L
same,CRP Median,[12],4.88 mg/L
same,CRP Min,[12],2.27 mg/L
same,CRP Max,"V4 Week 4, all subjects",7.81 mg/L
same,CRP Mean (SD),"V4 Week 4, all subjects",3.42 (1.84) mg/L
same,CRP Median,"V4 Week 4, all subjects",3.04 mg/L
same,CRP Min,"V4 Week 4, all subjects",0.90 mg/L
same,CRP Max,[13],7.81 mg/L
same,CRP Mean (SD),[13],3.94 (1.86) mg/L
same,CRP Median,[13],3.27 mg/L
same,CRP Min,[13],0.90 mg/L
same,CRP Max,"V5 Week 8, all subjects",9.20 mg/L
same,CRP Mean (SD),"V5 Week 8, all subjects",3.49 (2.06) mg/L
same,CRP Median,"V5 Week 8, all subjects",3.04 mg/L
same,CRP Min,"V5 Week 8, all subjects",0.91 mg/L
same,CRP Max,[14],9.20 mg/L
same,CRP Mean (SD),[14],4.09 (2.07) mg/L
same,CRP Median,[14],4.17 mg/L
same,CRP Min,[14],1.15 mg/L
same,CRP Max,"V6 Week 12, all subjects",8.84 mg/L
same,CRP Mean (SD),"V6 Week 12, all subjects",3.41 (2.24) mg/L
same,CRP Median,"V6 Week 12, all subjects",2.53 mg/L
same,CRP Min,"V6 Week 12, all subjects",0.61 mg/L
same,CRP Max,[15],4.30 mg/L
same,CRP Mean (SD),[15],2.94 (1.20) mg/L
same,CRP Median,[15],2.48 mg/L
same,CRP Min,[15],2.04 mg/L
same,CRP Max,[16],8.84 mg/L
same,CRP Mean (SD),[16],3.13 (2.14) mg/L
same,CRP Median,[16],2.53 mg/L
same,CRP Min,[16],0.61 mg/L
same,CRP Max,[17],8.84 mg/L
same,CRP Mean (SD),[17],4.16 (2.57) mg/L
same,CRP Median,[17],3.24 mg/L
same,CRP Min,[17],1.88 mg/L
same,CRP Max,[18],7.87 mg/L
same,CRP Mean (SD),[18],3.31 (2.28) mg/L
same,CRP Median,[18],2.53 mg/L
same,CRP Min,[18],0.61 mg/L
same,CRP Max,"V6 Week 12, subjects with CAD",2.31 mg/L
same,CRP Mean (SD),"V6 Week 12, subjects with CAD",1.57 (0.72) mg/L
same,CRP Median,"V6 Week 12, subjects with CAD",1.88 mg/L
same,CRP Min,"V6 Week 12, subjects with CAD",0.61 mg/L
